According to patent US6613317B1, “Volatile attractants for diabrotica species” (priority 1988, dated 2003):
Marks after values point to notes of the source that are not given here. Blank lines part the entries; values can stand above or below the compound they belong to.

Assays:
[1] = test system: southern corn rootworm (SCR) adults; test: Sticky trap attraction in corn, estragole analogues (Example 3); type: in vivo, Diabrotica undecimpunctata howardi; details: September 11; 100 mg per trap; n = 4
How it was run: (§1)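 Cotton wicks dosed with 100 mg or 100 μL attractant per trap on TangleTrap-coated cartons, four replicates 10 m apart on 1 m posts at field edges of hybrid or sweet corn. Mean beetles caught after ~24 h; log-transformed ANOVA with Duncan's test, P=0.05.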

[2] = test system: western corn rootworm (WCR) adults; test: Sticky trap attraction in corn, estragole analogues (Example 3); type: in vivo, Diabrotica virgifera virgifera; details: 100 mg per trap
How it was run: as §1

rootworm beetles = test: Small-plot comparison of insecticides in TEX×PEP dry ground bait; type: in vivo; details: 0.01-0.1% (wt/wt); 1- to 3.3-m2 plots of corn and cucurbits
Experimental: Bait applications to evaluate various insecticides. The relative effectiveness of a variety of insecticides incorporated at 0.01-0.1% (wt/wt) in TEX×PEP dry ground bait was compared. The following insecticides were tested: bendiocarb, carbaryl, carbofuran, methomyl, oxamyl; dimethoate, malathion, isofenphos, phospholan, and mephospholan; and permethrin, cypermethrin, fenvalerate, and flucythrinate. […] The overall greater effectiveness of the carbamates in these small-plot tests is attributed to their rapid kill and lack of repellent effect. The pyrethroids were somewhat repellent to the rootworm beetles.

D. u. howardi [3] = test: Sticky trap attraction along hybrid corn, Pomology South Farms (Example 2); type: in vivo, Diabrotica undecimpunctata howardi; details: 100 mg per trap, n = 4
Experimental: (§2) The candidate lures in all experiments were purchased commercially and exceeded 98% purity. The test chemicals were applied by capillary micropipettes to cotton dental wicks which were attached to the tops of 1.0 liter cylindrical paper cartons covered with TangleTrap™ (Tanglefoot Co., Grand Rapids, Mich.). The sticky trap techniques used were as described in Example 1. Cinnamyl alcohol and para-methoxycinnamaldehyde, which are solids, were dissolved in glass-distilled acetone prior to dosing the cotton wicks. All treatments were applied at a dosage of 100 mg per trap. 1,2,4-trimethoxybenzene, indole, and trans-cinnamaldehyde were mixed in a ratio of 1:1:1, by weight, immediately prior to dosing the cotton wicks. Control traps had untreated cotton wicks. Four replicates of treated and untreated traps were randomly positioned 10 meters apart on top of 1 m high posts along the border of a eight foot wide strip cut through the middle of a 4.05 ha relict prairie at Trelease Woods (ca. two miles northeast of Urbana, Ill.). The field consisted primarily of Andropogon gerardii Vitman (big bluestem) and a variety of composites. The tests were conducted in mid-August of two years and were timed to coincide with the presence of D. cristata and D. barberi adults in the flower heads of Canada thistle (Carduus arvensis Robson). In the second year, several new attractants of D. v. virgifera and D. barberi were tested in Trelease Woods and along the edge of a 0.8 ha field of hybrid corn located at the Pomology South Farms, Urbana, Ill. Attraction of Diabrotica species to the various lures was measured by the mean number of beetles caught after 24-h. On one date in late August of the first year, D. cristata and D. barberi were removed from the traps and sexed in the laboratory. The significance of treatments in all tests was determined by an analysis of variance and the individual means were separated by Duncan's multiple range test (Statistical Package for Social Science, Nie, et al., SPSS: statistical package for the social sciences, 2nd ed. McGraw-Hill, New York (1975). Data were logarithmically transformed for statistical analysis and the means and standard deviations are presented for the untransformed data.

SCR = test: Limit of response rating of squash blossom volatiles on sticky traps (Example 5); type: in vivo, Diabrotica undecimpunctata howardi; details: 24 hour; four replicate traps; 0.01 mg to 200 mg
How it was run: (§3)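 Adult Diabrotica beetles were tested against cylindrical sticky traps baited with cotton wicks holding 0.01 mg to 200 mg of individual Cucurbita maxima blossom volatiles. Response limit rated by trap catch.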

D. cristata = test: Sticky trap attraction in prairie habitat, Trelease Woods (Example 2); type: in vivo, Diabrotica cristata; details: 100 mg per trap, n = 4
Experimental: as §2, with “[…].” for “All treatments were applied at a dosage of 100 mg per trap. 1,2,4-trimethoxybenzene, indole, and trans-cinnamaldehyde were mixed in a ratio of 1:1:1, by weight, immediately prior to dosing the cotton wicks.”

D. v. virgifera [4] = test: Sticky trap attraction along hybrid corn, Pomology South Farms (Example 2); type: in vivo, Diabrotica virgifera virgifera; details: 100 mg per trap, n = 4
Experimental: as §2

NCR = test: Limit of response rating of squash blossom volatiles on sticky traps (Example 5); type: in vivo, Diabrotica barberi; details: 24 hour; four replicate traps; 0.01 mg to 200 mg
How it was run: as §3

D. barberi [5] = test: Sticky trap attraction along hybrid corn, Pomology South Farms (Example 2); type: in vivo, Diabrotica barberi; details: 100 mg per trap, n = 4
Experimental: as §2

D. barberi [6] = test: Sticky trap attraction in prairie habitat, Trelease Woods (Example 2); type: in vivo, Diabrotica barberi; details: 100 mg per trap, n = 4
Experimental: as §2, with “[…].” for “All treatments were applied at a dosage of 100 mg per trap. 1,2,4-trimethoxybenzene, indole, and trans-cinnamaldehyde were mixed in a ratio of 1:1:1, by weight, immediately prior to dosing the cotton wicks.”

D. u. howardi [7] = test: as above; type: in vivo, Diabrotica undecimpunctata howardi; details: 100 mg per trap, n = 4
Experimental: as §2, with “[…].” for “All treatments were applied at a dosage of 100 mg per trap. 1,2,4-trimethoxybenzene, indole, and trans-cinnamaldehyde were mixed in a ratio of 1:1:1, by weight, immediately prior to dosing the cotton wicks.”

D. v. virgifera [8] = test: as above; type: in vivo, Diabrotica virgifera virgifera; details: 100 mg per trap, n = 4
Experimental: as §2, with “[…].” for “All treatments were applied at a dosage of 100 mg per trap. 1,2,4-trimethoxybenzene, indole, and trans-cinnamaldehyde were mixed in a ratio of 1:1:1, by weight, immediately prior to dosing the cotton wicks.”

WCR = test: Limit of response rating of squash blossom volatiles on sticky traps (Example 5); type: in vivo, Diabrotica virgifera virgifera; details: 24 hour; for Attractant Rating WCR (by limit of response): four replicate traps, 0.01 mg to 200 mg; for LR for WCR: sticky traps
How it was run: as §3

[9] = test system: western corn rootworm (WCR) adults; details: cited from earlier work
[10] = test system: western corn rootworm (WCR) adults; test: Sticky trap attraction in sweet corn plots (Example 1); type: in vivo, Diabrotica virgifera virgifera; details: for Mean number of WCR per trap (±standard deviation): n = 4
How it was run: (§4)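 Field trapping in sweet-corn plots beside a Blue Hubbard squash trap crop; lures on mineral-oil-impregnated cotton wicks atop sticky paper-carton traps on 1-m posts, 4 replicates in randomized complete blocks. Beetles counted after 24 h; VIPAE/VIP/TIC mixtures and single components at 1–300 mg per trap, ANOVA/Duncan at P=0.05.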

[11] = test system: southern corn rootworm (SCR) adults; test: as above; type: in vivo, Diabrotica undecimpunctata howardi; details: for Mean number of SCR per trap (±standard deviation): n = 4
How it was run: as §4

[12] = August 4, second year, each compound 20 mg per trap
[13] = August 7, second year, each compound 20 mg per trap
[14] = August first year, South Farms, 24 h, single compounds 100 mg per trap, mixture 20 mg of each component
[15] = August first year, single compounds 100 mg per trap, mixture 20 mg each component

melting point: 87 to 89 °C
Compound: COC(=O)C=Cc1ccc(OC)cc1 [XIV, 4-methoxycinnamic acid methyl ester]
Mean number of SCR adults per sticky trap (±standard deviation) after 24 hours [1]: 0.7 ± 1.5^a per sticky trap
Mean number of WCR adults per sticky trap (±standard deviation) after 24 hours ([2]; September 11, n = 4): 1.0 ± 1.1^a per sticky trap

Compound: CNC(=O)Oc1cccc2ccccc12 [carbaryl]
relative effectiveness of insecticides in TEX×PEP dry ground bait (rootworm beetles): more effective than the pyrethroids

Compound: CNC(=O)ON=C(C)SC [methomyl]
relative effectiveness of insecticides in TEX×PEP dry ground bait (rootworm beetles): more effective than the pyrethroids

melting point: 34 to 35 °C
Compound: CCOc1ccc(OC)cc1 [VI, 4-methoxyphenyl ethyl ether]
Relative percent activity as compared with the highest mean in the column (WCR) ([2]; August 29): 8%
Mean number of WCR per sticky trap (±standard deviation) after 24 hours ([2]; August 29, n = 4): 12.0 ± 1.8 per sticky trap
Relative percent activity as compared with the highest mean in the column (WCR) ([2]; July 30): 39%
Mean number of WCR per sticky trap (±standard deviation) after 24 hours ([2]; July 30, n = 4): 32.0 ± 8.4 per sticky trap

Compound: CC(=O)/C=C/C1=C(C)CCCC1(C)C [β-ionone]
Mean number of D. u. howardi per stick trap per day (±standard deviation) in corn (D. u. howardi [3]; August 7): 1.8 ± 2.4^a per stick trap per day
Mean number of D. u. howardi per stick trap per day (±standard deviation) in corn (D. u. howardi [3]; August 18): 0.5 ± 0.7^a per stick trap per day
Attractant Rating SCR (by limit of response) (SCR): 0 (200)
Mean number of D. cristata per day (±standard deviation) (D. cristata; August 11, 1987): 17.3 ± 8.7^b per day
Mean number of D. cristata per day (±standard deviation) (D. cristata; August 14, 1987): 5.3 ± 2.2^b per day
Mean number of D. v. virgifera per stick trap per day (±standard deviation) in corn (D. v. virgifera [4]; August 7): 263.5 ± 94.6^cd per stick trap per day
Mean number of D. v. virgifera per stick trap per day (±standard deviation) in corn (D. v. virgifera [4]; August 18): 89.0 ± 18.2^b per stick trap per day
Attractant Rating NCR (by limit of response) (NCR): 0 (200)
Mean number of D. barberi per stick trap per day (±standard deviation) in corn (D. barberi [5]; August 7): 0.5 ± 0.7^a per stick trap per day
Mean number of D. barberi per stick trap per day (±standard deviation) in corn (D. barberi [5]; August 18): 1.5 ± 1.0^a per stick trap per day
Mean number of D. barberi per day (±standard deviation) (D. barberi [6]; August 11, 1987): 0.3 ± 0.5^ab per day
Mean number of D. barberi per day (±standard deviation) (D. barberi [6]; August 14, 1987): 0.3 ± 0.5^a per day
Mean number of D. u. howardi per day (±standard deviation) (D. u. howardi [7]; August 11, 1987): 0.3 ± 0.5^a per day
Mean number of D. u. howardi per day (±standard deviation) (D. u. howardi [7]; August 14, 1987): 0.0^a per day
Mean number of D. v. virgifera per day (±standard deviation) (D. v. virgifera [8]; August 11, 1987): 4.0 ± 0.8^b per day
Mean number of D. v. virgifera per day (±standard deviation) (D. v. virgifera [8]; August 14, 1987): 2.3 ± 1.3^b per day
Attractant Rating WCR (by limit of response) (WCR): +4 (1-3)
LR for WCR (WCR): 3 mg

Compound: c1ccc2[nH]ccc2c1 [Indole]
Attractant Rating SCR (by limit of response) (SCR): 0 (200)
LR values for WCR attraction (literature) ([9]; in vivo): 1 mg
Attractant Rating NCR (by limit of response) (NCR): 0 (200)
relative percent activity (WCR) as compared with the highest mean value for the test date [10, 12]: 100%
Mean number of WCR per trap (±standard deviation) [10, 12]: 51.3 ± 24.4 per trap
relative percent activity (WCR) as compared with the highest mean value for the test date [10, 13]: 87%
Mean number of WCR per trap (±standard deviation) [10, 13]: 27.5 ± 11.8 per trap
Mean number of WCR per trap (±standard deviation) [10, 14]: 3.3 ± 2.1 per trap
relative percent activity of the mean WCR trap catch as compared with the highest mean value in the column [10, 15]: 49%
relative percent activity (SCR) as compared with the highest mean value for the test date [11, 12]: 4%
Mean number of SCR per trap (±standard deviation) [11, 12]: 1.5 ± 1.0 per trap
relative percent activity (SCR) as compared with the highest mean value for the test date [11, 13]: 6%
Mean number of SCR per trap (±standard deviation) [11, 13]: 2.8 ± 1.3 per trap
Mean number of SCR per trap (±standard deviation) [11, 14]: 2.3 ± 2.1 per trap
relative percent activity of the mean SCR trap catch as compared with the highest mean value in the column [11, 15]: 11%
Attractant Rating WCR (by limit of response) (WCR): +4 (1-3)
LR for WCR (WCR): 1 mg

Compound: CCOP(=S)(NC(C)C)Oc1ccccc1C(=O)OC(C)C (stereo not shown) [Isofenphos, isofenphos]
relative effectiveness of insecticides in TEX×PEP dry ground bait (rootworm beetles): most effective of the organophosphorus insecticides

Compound: CNC(=O)Oc1cccc2c1OC(C)(C)C2 [carbofuran]
relative effectiveness of insecticides in TEX×PEP dry ground bait (rootworm beetles): more effective than the pyrethroids

Compound: CNC(=O)Oc1cccc2c1OC(C)(C)O2 [bendicarb, bendiocarb]
relative effectiveness of insecticides in TEX×PEP dry ground bait (rootworm beetles): more effective than the pyrethroids

Compound: CCC(=O)OC(C)CCCCCC(C)CC (stereo not shown) [8-methyl-2-decylpropanoate]
amount per sticky trap that attracted male WCR ([9]; per sticky trap): 5 µg
